Each compound was assayed against Human TASK-1 channels (Homo sapiens (Human), UniProt O14649) (assay: Determination of the activity on the TASK-1 channel in Xenopus oocytes (two-microelectrode voltage clamp)). Conditions: compound concentration 5 μM.
Human TASK-1 channels, sequence (O14649 whole entry): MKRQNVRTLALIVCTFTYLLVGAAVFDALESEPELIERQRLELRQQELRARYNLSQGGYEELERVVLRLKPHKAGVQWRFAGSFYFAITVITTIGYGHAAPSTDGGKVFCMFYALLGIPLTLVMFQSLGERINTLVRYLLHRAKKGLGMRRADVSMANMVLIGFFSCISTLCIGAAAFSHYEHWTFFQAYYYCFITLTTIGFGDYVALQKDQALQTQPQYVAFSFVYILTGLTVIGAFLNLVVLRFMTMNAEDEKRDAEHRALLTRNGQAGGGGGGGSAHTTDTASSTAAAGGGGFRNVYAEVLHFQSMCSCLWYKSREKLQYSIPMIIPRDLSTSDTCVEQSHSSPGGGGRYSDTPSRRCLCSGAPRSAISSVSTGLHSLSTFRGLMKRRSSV
Assay type: cell-based
Summary of the method: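 Xenopus oocytes were injected with human TASK-1 cRNA and recorded two days later by two-microelectrode voltage clamp, holding at −90 mV with 500 ms steps to 40 mV. Superfusion used ND96, pH 7.4, at room temperature, with rising compound concentrations; percentage inhibition of control current was fitted to a dose-response curve for IC50.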
For C[C@H]1CCCN1C(=O)c1cc(C(=O)NCc2c(F)cc(F)cc2F)c2n1CCOC2 [16af, 6-((S)-2-Methyl-pyrrolidine-1-carbonyl)-3,4-dihydro-1H-pyrrolo[2,1-c][1,4]oxazine-8-carboxylic acid 2,4,6-trifluoro-benzylamide], the inhibition at 5 µM was 78%. With CC[C@@H](NC(=O)c1cc(C(=O)N2CCC2C)n2c1COCC2)c1ccc(C(F)(F)F)nc1 (stereo partly drawn) [16pe, 6-(2-Methyl-azetidine-1-carbonyl)-3,4-dihydro-1H-pyrrolo[2,1-c][1,4]oxazine-8-carboxylic acid [(R)-1-(6-trifluoromethyl-pyridin-3-yl)-propyl]-amide] the inhibition at 5 µM was 69%. For CC[C@@H](NC(=O)c1cc(C(=O)N2CCCC2C(O)c2ccccc2)n2c1COCC2)c1ccccc1 (stereo partly drawn) [16fj, 6-[2-(Hydroxy-phenyl-methyl)-pyrrolidine-1-carbonyl]-3,4-dihydro-1H-pyrrolo[2,1-c][1,4]oxazine-8-carboxylic acid ((R)-1-phenyl-propyl)-amide], the inhibition at 5 µM was 89%.

Same assay, conditions: human TASK-1 expressed in Xenopus oocytes, room temperature; read-out: IC50 value for TASK-1 inhibition
CC[C@@H](NC(=O)c1cc(C(=O)NC2CCCc3nccnc32)n2c1COCC2)c1ccccc1 (stereo partly drawn) [16io, 3,4-Dihydro-1H-pyrrolo[2,1-c][1,4]oxazine-6,8-dicarboxylic acid 8-[((R)-1-phenyl-propyl)-amide] 6-[(5,6,7,8-tetrahydro-quinoxalin-5-yl)-amide]] showed an IC50 of 940 nM. With CC[C@@H](NC(=O)c1cc(C(=O)NC(C)c2nnnn2C)n2c1COCC2)c1ccccc1 (stereo partly drawn) [16ro, 3,4-dihydro-1H-pyrrolo[2,1-c][1,4]oxazine-6,8-dicarboxylic acid 6-{[1-(1-methyl-1H-tetrazol-5-yl)-ethyl]-amide} 8-[((R)-1-phenyl-propyl)-amide]] the IC50 was 2800 nM. For CC[C@@H](NC(=O)c1cc(C(=O)NCC2CCOCC2)n2c1CCCC2)c1ccccc1 [16mq, 5,6,7,8-Tetrahydro-indolizine-1,3-dicarboxylic acid 1-[((R)-1-phenyl-propyl)-amide] 3-[(tetrahydro-pyran-4-ylmethyl)-amide]], the IC50 was 310 nM. CC[C@@H](NC(=O)c1cc(C(=O)NCC(C)(C)C)n2c1COCC2)c1ccccc1 [16go, 3,4-Dihydro-1H-pyrrolo[2,1-c][1,4]oxazine-6,8-dicarboxylic acid 6-[(2,2-dimethyl-propyl)-amide] 8-[((R)-1-phenyl-propyl)-amide]] showed an IC50 of 900 nM. CC[C@@H](NC(=O)c1cc(C(=O)N[C@H](CC)c2ccccc2)n2c1COCC2)c1ccc(OC)nc1 [16jo, 3,4-Dihydro-1H-pyrrolo[2,1-c][1,4]oxazine-6,8-dicarboxylic acid 8-{[(R)-1-(6-methoxy-pyridin-3-yl)-propyl]-amide} 6-[((R)-1-phenyl-propyl)-amide]] showed an IC50 of 250 nM. Work on CC[C@@H](NC(=O)c1cc(C(=O)N2CCC[C@@H]2C)n2c1COCC2)c1cnc(Cl)c(Cl)c1 [16co, 6-((S)-2-Methyl-pyrrolidine-1-carbonyl)-3,4-dihydro-1H-pyrrolo[2,1-c][1,4]oxazine-8-carboxylic acid [(R)-1-(5,6-dichloro-pyridin-3-yl)-propyl]-amide] yielded an IC50 of 140 nM. CC(C)[C@@H](NC(=O)c1cc(C(=O)N2CCC[C@@H]2C)n2c1COCC2)c1ccc(F)cc1 [16p, 6-((S)-2-Methyl-pyrrolidine-1-carbonyl)-3,4-dihydro-1H-pyrrolo[2,1-c][1,4]oxazine-8-carboxylic acid [(R)-1-(4-fluoro-phenyl)-2-methyl-propyl]-amide] showed an IC50 of 380 nM. For CC[C@@H](NC(=O)c1cc(C(=O)N2CCC[C@@H]2C)n2c1COCC2)c1ccc(C(F)(F)F)cc1C(F)(F)F [16cp, 6-((S)-2-Methyl-pyrrolidine-1-carbonyl)-3,4-dihydro-1H-pyrrolo[2,1-c][1,4]oxazine-8-carboxylic acid [(R)-1-(2,4-bis-trifluoromethyl-phenyl)-propyl]-amide], the IC50 was 970 nM. In the case of O=C(N[C@H](c1ccc(F)cc1)C1CC1)c1cc(C(=O)N2CCCC2)n2c1COCC2 [16dh, 6-(Pyrrolidine-1-carbonyl)-3,4-dihydro-1H-pyrrolo[2,1-c][1,4]oxazine-8-carboxylic acid [(S)-cyclopropyl-(4-fluoro-phenyl)-methyl]-amide], the IC50 is reported as 290 nM. CC[C@@H](NC(=O)c1cc(C(=O)N2CCC[C@@H]2C)n2c1SCC2)c1ccccc1 [16ks, 5-((S)-2-Methyl-pyrrolidine-1-carbonyl)-2,3-dihydro-pyrrolo[2,1-b]thiazole-7-carboxylic acid ((R)-1-phenyl-propyl)-amide] showed an IC50 of 37 nM. Work on CC(NC(=O)c1cc(C(=O)N[C@@H](c2ccc(F)cc2)C(C)C)n2c1COCC2)c1ccno1 (stereo partly drawn) [16lk, 3,4-Dihydro-1H-pyrrolo[2,1-c][1,4]oxazine-6,8-dicarboxylic acid 6-{[(R)-1-(4-fluoro-phenyl)-2-methyl-propyl]-amide} 8-[(1-isoxazol-5-yl-ethyl)-amide]] yielded an IC50 of 310 nM. Work on CC[C@@H](NC(=O)c1cc(C(=O)N2CCC[C@@H]2c2cnccn2)c2n1CCOC2)c1ccc(F)cc1F [16pj, 8-((R)-2-Pyrazin-2-yl-pyrrolidine-1-carbonyl)-3,4-dihydro-1H-pyrrolo[2,1-c][1,4]oxazine-6-carboxylic acid [(R)-1-(2,4-difluoro-phenyl)-propyl]-amide] yielded an IC50 of 1100 nM. Compound CC[C@@H](NC(=O)c1cc(C(=O)N[C@H](CC)c2cncc(C(F)(F)F)c2)n2c1COCC2)c1ccccc1 [16hn, 3,4-Dihydro-1H-pyrrolo[2,1-c][1,4]oxazine-6,8-dicarboxylic acid 8-[((R)-1-phenyl-propyl)-amide] 6-{[(R)-1-(5-trifluoromethyl-pyridin-3-yl)-propyl]-amide}] has an IC50 of 690 nM. In the case of CC[C@@H](NC(=O)c1cc(C(=O)N[C@@H](C)c2ccc(F)cc2)n2c1COCC2)c1ncccn1 [16ef, 3,4-Dihydro-1H-pyrrolo[2,1-c][1,4]oxazine-6,8-dicarboxylic acid 6-{[(S)-1-(4-fluoro-phenyl)-ethyl]-amide} 8-[((R)-1-pyrimidin-2-yl-propyl)-amide]], the IC50 is reported as 820 nM. CC[C@@H](NC(=O)c1cc(C(=O)NCCOC)n2c1COCC2)c1ccccc1 [16gh, 3,4-Dihydro-1H-pyrrolo[2,1-c][1,4]oxazine-6,8-dicarboxylic acid 6-[(2-methoxy-ethyl)-amide] 8-[((R)-1-phenyl-propyl)-amide]] showed an IC50 of 2200 nM. In the case of CC[C@@H](NC(=O)c1cc(C(=O)NC(C)COC)n2c1COCC2)c1ccccc1 (stereo partly drawn) [16gg, 3,4-Dihydro-1H-pyrrolo[2,1-c][1,4]oxazine-6,8-dicarboxylic acid 6-[(2-methoxy-1-methyl-ethyl)-amide] 8-[((R)-1-phenyl-propyl)-amide]], the IC50 is reported as 230 nM. CC[C@@H](NC(=O)c1cc(C(=O)N2CC[C@H](Oc3ccc(F)cc3)C2)n2c1COCC2)c1ccccc1 [16fu, 6-[(S)-3-(4-Fluoro-phenoxy)-pyrrolidine-1-carbonyl]-3,4-dihydro-1H-pyrrolo[2,1-c][1,4]oxazine-8-carboxylic acid ((R)-1-phenyl-propyl)-amid] gave an IC50 of 240 nM. Work on CC[C@@H](NC(=O)c1cc(C(=O)N[C@H](C)c2ccc(F)cc2)n2c1COCC2)c1cccnc1C(F)(F)F [16dt, 3,4-Dihydro-1H-pyrrolo[2,1-c][1,4]oxazine-6,8-dicarboxylic acid 6-{[(R)-1-(4-fluoro-phenyl)-ethyl]-amide} 8-{[(R)-1-(2-trifluoromethyl-pyridin-3-yl)-propyl]-amide}] yielded an IC50 of 1000 nM. For CC[C@@H](NC(=O)c1cc(C(=O)NC(C)c2cnccn2)n2c1COCC2)c1ccccc1 (stereo partly drawn) [16hl, 3,4-Dihydro-1H-pyrrolo[2,1-c][1,4]oxazine-6,8-dicarboxylic acid 8-[((R)-1-phenyl-propyl)-amide] 6-[(1-pyrazin-2-yl-ethyl)-amide]], the IC50 was 170 nM. In the case of CC[C@@H](NC(=O)c1cc(C(=O)N2CCC[C@H]2C)c2n1CCOC2)c1ccccc1 [16kj, 8-((R)-2-Methyl-pyrrolidine-1-carbonyl)-3,4-dihydro-1H-pyrrolo[2,1-c][1,4]oxazine-6-carboxylic acid ((R)-1-phenyl-propyl)-amide], the IC50 is reported as 270 nM. In the case of CC[C@@H](NC(=O)c1cc(C(=O)N2CCC[C@@H]2C)n2c1CCCC2)c1ccc(C#N)cc1 [16lx, 3-((S)-2-Methyl-pyrrolidine-1-carbonyl)-5,6,7,8-tetrahydro-indolizine-1-carboxylic acid [(R)-1-(4-cyano-phenyl)-propyl]-amide], the IC50 is reported as 200 nM. Work on CC[C@@H](NC(=O)c1cc(C(=O)Nc2ccc(F)cn2)n2c1COCC2)c1ccccc1 [16hc, 3,4-Dihydro-1H-pyrrolo[2,1-c][1,4]oxazine-6,8-dicarboxylic acid 6-[(5-fluoro-pyridin-2-yl)-amide] 8-[((R)-1-phenyl-propyl)-amide]] yielded an IC50 of 180 nM. Work on CC[C@@H](NC(=O)c1cc(C(=O)NC(C)c2ncccn2)n2c1COCC2)c1ccccc1Cl (stereo partly drawn) [16nr, 3,4-Dihydro-1H-pyrrolo[2,1-c][1,4]oxazine-6,8-dicarboxylic acid 8-{[(R)-1-(2-chloro-phenyl)-propyl]-amide} 6-[(1-pyrimidin-2-yl-ethyl)-amide]] yielded an IC50 of 310 nM. In the case of CC[C@@H](NC(=O)c1cc(C(=O)NCc2c(C)noc2C)c2n1CCOC2)c1ccccc1 [16jl, 3,4-Dihydro-1H-pyrrolo[2,1-c][1,4]oxazine-6,8-dicarboxylic acid 8-[(3,5-dimethyl-isoxazol-4-ylmethyl)-amide] 6-[((R)-1-phenyl-propyl)-amide]], the IC50 is reported as 3200 nM. CC[C@@H](NC(=O)c1cc(C(=O)N[C@H](CC)c2cccc(C(=O)O)c2)n2c1COCC2)c1ccccc1 [16rm, 3-((R)-1-{[8-((R)-1-Phenyl-propylcarbamoyl)-3,4-dihydro-1H-pyrrolo[2,1-c][1,4]oxazine-6-carbonyl]-amino}-propyl)-benzoic acid] was tested, and the IC50 was 4900 nM. CC[C@@H](NC(=O)c1cc(C(=O)N2CCC[C@@H]2C(O)C2CC2)n2c1COCC2)c1ccccc1 (stereo partly drawn) [16et, 6-[(R)-2-(Cyclopropyl-hydroxy-methyl)-pyrrolidine-1-carbonyl]-3,4-dihydro-1H-pyrrolo[2,1-c][1,4]oxazine-8-carboxylic acid ((R)-1-phenyl-propyl)-amide] was tested, and the IC50 was 1300 nM.

From US9284333B2, “Fused pyrroledicarboxamides and their use as pharmaceuticals” (SANOFI, priority 2012, dated 2016)
